21 molecules from US11925629B2, “Heterocyclic inhibitors of ERK1 and ERK2 and their use in the treatment of cancer” (Asana Biosciences, LLC, priority 2015, dated 2024) can be followed below.

Experiment [1] has as its system HT-29 (colorectal carcinoma, B-RafV600E) cells. Kind of experiment: Cell proliferation (Alamar Blue) assay, HT-29. In kind it is cell-based, human. Here is the method:
(§1) Cell Proliferation (Alamar Blue) Assay
(§2) HT-29 (colorectal carcinoma, B-RafV600E), HCT116 (colorectal carcinoma, K Ras G13D), A375 (melanoma, B-RafV600E) and SK-Mel2 (melanoma, NRAS Q61R) cells (obtained from ATCC, USA) were seeded (5000 cells/well) in 96-well tissue culture plate and incubated at 37° C./5% CO2 for 16-24 hours. The cells were then treated with compounds, at concentrations typically from 0.0005 to 10 uM prepared in 3-fold serial dilutions. The plates were then incubated for 72 h at 37° C./5% CO2 in a moist environment. Then Alamar Blue™ reagent (final concentration 1×) was added to each well and incubated for 1-3 h at 37° C./5% CO2. The plates were read on fluorescence reader at 540 nm excitation and 590 nm emission wavelengths. The IC50 values were subsequently determined using a sigmoidal dose-response curve (variable slope) using GraphPad Prism® 5 software.

In experiment [2] the test system is HCT116 (colorectal carcinoma, K Ras G13D) cells. Kind of experiment: Cell proliferation (Alamar Blue) assay, HCT116. It is filed as cell-based, human. Here is the method: as §1, §2
[3] abbreviates: Homo sapiens, HT-29, HT29 cells.
The mark [4] stands for this setting: Homo sapiens, HCT-116, HCT116 cells.

By IC50 is commonly meant the concentration that gives 50% inhibition. A lower IC50 goes with greater potency in that assay. For the molecule `Cc1cnc(Nc2ccc3c(c2)OCO3)nc1-n1cc(C(=O)NC(CO)c2cccc(Cl)c2)cn1` (stereo not drawn) [Example 41, 1-(2-(benzo[d][1,3]dioxol-5-ylamino)-5-methyl-pyrimidin-4-yl)-N-(1-(3-chloro-phenyl)-2-hydroxy-ethyl)-1H-pyrazole-4-carboxamide], the IC50 in experiment [1] (setting [3]) and in experiment [2] (setting [4]) was over 2500 nM in each case. For the molecule `Cc1cnc(Nc2ccc3c(c2)OC(F)(F)O3)cc1-n1cnc(C(=O)NC(CO)c2cccc(Cl)c2)c1` (stereo not drawn) [Example 90, N-(1-(3-chlorophenyl)-2-hydroxy-ethyl)-1-(2-((2,2-difluoro-benzo[d][1,3]dioxol-5-yl)amino)-5-methyl-pyridin-4-yl)-1H-imidazole-4-carboxamide], the 50% inhibitory concentration (IC50) in experiment [1] (setting [3]) and in experiment [2] (setting [4]) was over 2500 nM in each case.

For `Cc1cnc(Nc2ccc(F)cc2Cl)nc1-n1cc(NC(=O)NC(CO)c2cccc(Cl)c2)cn1` (stereo not drawn) [Example 36, 1-(1-(2-((2-chloro-4-fluorophenyl)-amino)-5-methyl-pyrimidin-4-yl)-1H-pyrazol-4-yl)-3-(1-(3-chlorophenyl)-2-hydroxy-ethyl)urea], in experiment [2] (setting [4]), the concentration for half-maximal inhibition (IC50) is over 2500 nM. For the molecule `O=C(NC(CO)c1cccc(Cl)c1)c1ccn(-c2ccnc(Nc3ccccc3)c2)c1` (stereo not drawn) [Example 46, N-(1-(3-chloro-phenyl)-2-hydroxy-ethyl)-1-(2-(phenyl-amino)pyridin-4-yl)-1H-pyrrole-3-carboxamide], the 50% inhibitory concentration (IC50) in experiment [1] (setting [3]) and in experiment [2] (setting [4]) was over 2500 nM in each case. With `Cc1cnc(Nc2ccc(F)cc2Cl)cc1-n1ccc(C(=O)NC(CO)c2ccccc2)c1` (stereo not drawn) [Example 78, 1-(2-((2-chloro-4-fluorophenyl)amino)-5-methyl-pyridin-4-yl)-N-(2-hydroxy-1-phenylethyl)-1H-pyrrole-3-carboxamide], the IC50 in experiment [1] (setting [3]) and in experiment [2] (setting [4]) was over 2500 nM throughout. Turning to `NCC(NC(=O)c1cn(-c2ccnc(Nc3ccc(F)cc3)c2)cn1)c1ccccc1` (stereo not drawn) [Example 221, N-(2-amino-1-phenylethyl)-1-(2-((4-fluorophenyl)amino)pyridin-4-yl)-1H-imidazole-4-carboxamide], the 50% inhibitory concentration (IC50) in experiment [1] (setting [3]) is 250 to 500 nM; in experiment [2] (setting [4]), 500 to 2500 nM.

On to `Cc1cnc(Nc2ccc3occc3c2)cc1-n1ccc(C(=O)NC(CO)c2ccccc2)c1` (stereo not drawn) [Example 79, 1-(2-(benzo-furan-5-ylamino)-5-methyl-pyridin-4-yl)-N-(2-hydroxy-1-phenylethyl)-1H-pyrrole-3-carboxamide], for which the half-inhibitory concentration (IC50) in experiment [1] (setting [3]) and in experiment [2] (setting [4]) was over 2500 nM each time. On to `O=C(Nc1cnn(-c2ccnc(Nc3ccc(F)cc3Cl)n2)c1)N[C@H](CO)c1cccc(Cl)c1` [Cmpd 20, (S)-1-(1-(2-((2-chloro-4-fluoro-phenyl)amino)pyrimidin-4-yl)-1H-pyrazol-4-yl)-3-(1-(3-chloro-phenyl)-2-hydroxyethyl) urea], for which, in experiment [2] (setting [4]), the IC50 was over 2500 nM. On to `Cc1cnc(NC2CCCCC2)nc1-n1cnc(C(=O)NC(CO)c2cccc(Cl)c2)c1` (stereo not drawn) [Example 226, N-(1-(3-chlorophenyl)-2-hydroxyethyl)-1-(2-(cyclohexylamino)-5-methylpyrimidin-4-yl)-1H-imidazole-4-carboxamide], for which the figures for the 50% inhibitory concentration (IC50) in experiment [1] (setting [3]) and in experiment [2] (setting [4]) were 250 to 500 nM and over 2500 nM, respectively. For `O=C(N[C@H](CO)c1cccc(Cl)c1)c1ccn(-c2nc(NC3CCOCC3)ncc2F)c1` [Example 229, (S)-N-(1-(3-chlorophenyl)-2-hydroxyethyl)-1-(5-fluoro-2-((tetrahydro-2H-pyran-4-yl)amino)pyrimidin-4-yl)-1H-pyrrole-3-carboxamide] the same measures were at most 100 nM and 500 to 2500 nM. Turning to `Cc1cnc(Nc2ccc(F)cc2Cl)nc1-n1cc(C(=O)NC(CN)c2ccccc2)cn1` (stereo not drawn) [Example 54, N-(2-amino-1-phenylethyl)-1-(2-((2-chloro-4-fluoro-phenyl)amino)-5-methyl-pyrimidin-4-yl)-1H-pyrazole-4-carboxamide], the concentration for half-maximal inhibition (IC50) in experiment [1] (setting [3]) and in experiment [2] (setting [4]) was over 2500 nM each time. With `Cc1cnc(NC2CCOCC2)nc1-n1cnc(C(=O)NC(CN)c2ccc(Cl)s2)c1` (stereo not drawn) [Example 274, N-(2-amino-1-(5-chlorothiophen-2-yl)ethyl)-1-(5-methyl-2-((tetrahydro-2H-pyran-4-yl)amino)pyrimidin-4-yl)-1H-imidazole-4-carboxamide], in experiment [2] (HCT116 cells), the IC50 was at most 100 nM. Regarding `O=C(Nc1cnn(-c2ccnc(Nc3ccccc3Cl)n2)c1)N[C@H](CO)c1cccc(Cl)c1` [Example 1, (S)-1-(1-(3-chlorophenyl)-2-hydroxyethyl)-3-(1-(2-((2-chloro-phenyl)amino)pyrimidin-4-yl)-1H-pyrazol-4-yl) urea], the IC50 in experiment [2] (setting [4]) was over 2500 nM. The same measure, in the same setting: under `COc1cc(N2CCN(C(C)=O)CC2)ccc1Nc1nccc(-n2cc(NC(=O)N[C@H](CO)c3cccc(Cl)c3)cn2)n1` [Example 15, (S)-1-(1-(2-((4-(4-acetyl-piperazin-1-yl)-2-methoxy-phenyl)amino)pyrimidin-4-yl)-1H-pyrazol-4-yl)-3-(1-(3-chloro-phenyl)-2-hydroxyethyl) urea] stands over 2500 nM. As for `Cc1cnc(NC2CCOCC2)nc1-n1cnc(C(=O)NC(CN)c2ccc(Cl)s2)c1` (single isomer, unassigned; enantiomer #1) [Example 290, N-(2-amino-1-(5-chlorothiophen-2-yl)ethyl)-1-(5-methyl-2-((tetrahydro-2H-pyran-4-yl)amino)pyrimidin-4-yl)-1H-imidazole-4-carboxamide (enantiomer #1)], the concentration for half-maximal inhibition (IC50) in experiment [2] (HCT116 cells) is at most 100 nM. In the case of `O=C(Nc1cnn(-c2ccnc(N[C@H]3CC[C@H](O)CC3)n2)c1)N[C@H](CO)c1cccc(Cl)c1` [Example 14, 1-((S)-1-(3-chlorophenyl)-2-hydroxy-ethyl)-3-(1-(2-((trans-4-hydroxycyclo-hexyl)amino)pyrimidin-4-yl)-1H-pyrazol-4-yl)urea], the IC50 in experiment [2] (setting [4]) was over 2500 nM. Turning to `O=C(N[C@H](CO)c1cccc(Cl)c1)c1ccn(-c2ccnc(Nc3ccc(F)cc3Cl)n2)c1` [Example 112, (S)-1-(2-((2-chloro-4-fluorophenyl)-amino)pyrimidin-4-yl)-N-(1-(3-chlorophenyl)-2-hydroxy-ethyl)-1H-pyrrole-3-carboxamide], the half-inhibitory concentration (IC50) in experiment [2] (setting [4]) was over 2500 nM. Same read-out and setting: under `O=C(Nc1cnn(-c2ccnc(NC3CC3)n2)c1)NC(CO)c1cccc(Cl)c1` (stereo not drawn) [Example 16, 1-(1-(3-chlorophenyl)-2-hydroxy-ethyl)-3-(1-(2-(cyclo-propylamino)pyrimidin-4-yl)-1H-pyrazol-4-yl)urea] stands over 2500 nM. `Cc1cnc(Nc2ccc(F)cc2)cc1-n1cnc(C(=O)NC(CN)c2ccccc2)c1` (single isomer, unassigned; enantiomer #1) [Example 227, N-(2-amino-1-phenylethyl)-1-(2-((4-fluorophenyl)amino)-5-methylpyridin-4-yl)-1H-imidazole-4-carboxamide, Enantiomer #1] gave a half-inhibitory concentration (IC50) in experiment [1] (HT29 cells) of 100 to 250 nM. On to `Cc1cnc(Nc2ccc(F)cc2Cl)nc1-n1cc(C(=O)N[C@H](CO)c2cccc(Cl)c2)cn1` [Example 35, (S)-1-(2-((2-chloro-4-fluoro-phenyl)amino)-5-methyl-pyrimidin-4-yl)-N-(1-(3-chloro-phenyl)-2-hydroxy-ethyl)-1H-pyrazole-4-carboxamide], for which the concentration for half-maximal inhibition (IC50) in experiment [2] (setting [4]) is over 2500 nM. On the same count and under the same terms, under `O=C(Nc1cnn(-c2ccnc(Nc3ccccc3)c2)c1)NC(CO)c1cccc(Cl)c1` (stereo not drawn) [Example 33, 1-(1-(3-chlorophenyl)-2-hydroxy-ethyl)-3-(1-(2-(phenyl-amino)-pyridin-4-yl)-1H-pyrazol-4-yl)urea] stands over 2500 nM.
